From patent US9382295B2, “Cyclic depsipeptide compounds and their uses” (Cypralis Limited, priority 2012, dated 2016)
In brackets after ≈: the same amount, converted by molar mass. Read-outs that look alike come from different tables or passages of the source. Numbered stars: 1 amine (or outer) side, 2 acyl side, 3 side chain; on linkers, the order of the positions; unused ones are H or OH. Square brackets hold non-standard residues; d marks the D form. Peptide text beside a SMILES is read from it. X2 = C[C@H](CCCc1cccc(N2CCOCC2)n1)[C@@H](O)[C@H](C(=O)[*:2])N(C)[*:1]; X5 = C[C@H](CCN1CCS(=O)(=O)CC1)[C@@H](O)[C@H](C(=O)[*:2])N(C)[*:1]; X3 = C[C@H](CCN1CC2CCC(C1)O2)[C@@H](O)[C@H](C(=O)[*:2])N(C)[*:1]; X1 = Cc1cccc(CCC[C@@H](C)[C@@H](O)[C@H](C(=O)[*:2])N(C)[*:1])n1; X4 = C[C@H](C/C=C/c1ncccn1)[C@@H](O)[C@H](C(=O)[*:2])N(C)[*:1]; d(aThr) = C[C@@H](O)[C@@H](N)C(=O)O; NMeL = CN[C@@H](CC(C)C)C(=O)O; dNMeL = CN[C@H](CC(C)C)C(=O)O; dNMeV = CN[C@@H](C(=O)O)C(C)C; Hiv = CC(C)[C@H](O)C(=O)O; Sar = CNCC(=O)O

Key:
cyclophilin A (Cyp A) = target: T1, cyclophilin A (Cyp A) (Homo sapiens, UniProt P62937); assay: Protease-free PPIase assay, cyclophilin A; format: biochemical
T1 construct: purchased Sigma C3805
T1 sequence (P62937 whole entry): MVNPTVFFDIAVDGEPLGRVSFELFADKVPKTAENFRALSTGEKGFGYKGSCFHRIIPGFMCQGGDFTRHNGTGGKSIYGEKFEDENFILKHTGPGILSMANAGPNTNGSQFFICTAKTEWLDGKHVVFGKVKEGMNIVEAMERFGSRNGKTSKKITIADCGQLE
Summary of the method: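 Protease-free cis-trans isomerisation: 2 nM recombinant human cyclophilin A with 60 μM succinimide-peptide substrate in 35 mM HEPES pH 7.8 plus DTT, at 10.0 °C, max 0.5% DMSO. Absorbance at 330 nm was fitted to first-order kinetics, background subtracted, and catalytic rates versus inhibitor concentration gave Ki.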

cyclophilin D (Cyp D) = cyclophilin D (Cyp D) (Homo sapiens, UniProt P30405); assay: Protease-free PPIase assay, cyclophilin D; format: biochemical
Chain of cyclophilin D (Cyp D) (P30405 30-207): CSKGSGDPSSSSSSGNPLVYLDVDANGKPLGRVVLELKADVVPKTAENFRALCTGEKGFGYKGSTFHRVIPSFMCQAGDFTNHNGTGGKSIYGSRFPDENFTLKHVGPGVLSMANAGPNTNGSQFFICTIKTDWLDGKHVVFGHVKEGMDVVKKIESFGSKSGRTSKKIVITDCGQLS
Summary of the method: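 Cis-trans isomerization of a succinimide-peptide substrate (60 µM final) by 2 nM enzyme was followed at 330 nm in 35 mM HEPES pH 7.8 with 50 µM DTT, stirred at 10.0 °C, DMSO ≤0.5%. First-order rate constants minus background were fitted against inhibitor concentration to give Ki.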

[1] = target: T2, calcineurin/cyclophilin A (Homo sapiens, UniProt P62937+P63098+Q08209); assay: Calcineurin phosphatase (CaN) assay in the presence of Cyp A; format: biochemical; details: inhibitor in 1:1 complex with Cyp A; read-out: CaN + CypA (IC50 in the calcineurin/cyclophilin A assay)
T2 construct: purchased Enzo Life Sciences (calcineurin, calmodulin); Sigma (CypA) BML-AK804; C3805
T2 sequence (P63098 whole entry, other chains not shown): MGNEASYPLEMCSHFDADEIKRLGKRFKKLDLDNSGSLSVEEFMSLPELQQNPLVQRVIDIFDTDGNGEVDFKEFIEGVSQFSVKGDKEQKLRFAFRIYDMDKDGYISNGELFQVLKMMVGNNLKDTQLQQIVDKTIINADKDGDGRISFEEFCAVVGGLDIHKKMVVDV
T2 sequence (P62937 whole entry, other chains not shown): as the sequence (P62937 whole entry) above
Description: **Calcineurin Phosphatase (CaN) Assay The calcineurin phosphatase assay is a means for estimating the immunosuppressive potential of a test compound. Calcineurin is a serine-threonine protein phosphatase that on activation dephosphorylates members of the nuclear factor of activated T cells (NFAT), which are important in T lymphocyte activation. […] To investigate the immunosuppressive potential of exemplary compounds of Formula 1, which are novel cycloundecadepsipeptide compounds, their ability to inhibit calcineurin activity was measured in the presence of Cyp A. The CaN assay kit used is based on a colorimetric assay for measuring calcineurin phosphatase activity, and it is commercially available (Enzo Life Sciences and Calbiochem). Calmodulin is also required for calcineurin activity and RH phosphopeptide is used as an efficient peptide substrate for calcineurin. […] The detection of free phosphate released is based on the classic Malachite green assay. Enzo Life Sciences CaN Assay Kit: BML-AK804 2× assay buffer: 100 mM Tris, pH7.5, 200 mM NaCl, 12 mM MgCl2, 1 mM DTT, 0.05% NP-40, 1 mM CaCl2 Calmodulin (Human, Recombinant): was thawed on ice, diluted 1:50 with 2× assay buffer, and then stored on ice. Calcineurin: was thawed quickly, stored on ice immediately, diluted 1:12.5 with 1× assay buffer, and then stored on ice. R-II Substrate: 915 μL ultrapure water (UPW) was added to the 1.5 mg vial substrate to give a final concentration of 0.75 mM. Inhibitors: 2.5 mM inhibitor in 100% DMSO. Cyp A: recombinant human CypA (Sigma C3805), 1 mg/ml; Recombinant 6-his tagged CypA prepared by the Univ. of Edinburgh was also used. […] Inhibitor dilutions: inhibitor compounds were diluted in UPW in polypropylene low-binding 96 well plates at 5x the final assay concentration. For samples ‘without Cyp A’, a 4-point dilution series of the inhibitor was prepared in duplicate to obtain a final assay concentration of 10, 1, 0.1 and 0.01 μM. […] Cs A inhibitor controls were also prepared to obtain a final concentration of 10 μM Cs A with and without 10 μM Cyp A. Assay Setup: using the half area 96 well plates supplied with the kit, 10 μl UPW was added to duplicate wells to provide the non-inhibited control. 10 μl of the inhibitor or the inhibitor/Cyp A complex was added to the appropriate sample wells. 25 μl of the 2× assay buffer with CaM was added to all wells, then 5 μl of CaN was added to all wells (40 U per well final concentration) except duplicate ‘no calcineurin blank’ wells to which 5 μL 1× assay buffer was added. […] The reaction was started by the addition of 10 μl RII-peptide (0.15 mM final concentration). The reaction was allowed to proceed at 30° C. for a time period in which the reaction is linear for about 60 minutes. The reaction was then terminated by adding 100 μl of the Malachite Green reagent. […] The data were analyzed by subtracting ‘no Calcineurin blank’ from all the absorbance readings and plotting the background corrected absorbances against Log10 inhibitor concentration. A sigmoidal-dose response curve was fitted to the data using GraphPad Prism Software. […] It exerts its immunosuppressive activity by binding to cyclophilin A to form a complex, which then binds to calcineurin and thereby inhibits calcineurin activity.

[2] = Water solubility assay (pH 7.8 buffer); format: physicochemical
Summary of the method: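 DMSO stocks were diluted into 35 mM HEPES pH 7.8 to final 0–100 μM with 1% DMSO, in triplicate. Plates were shaken 18 h at 25 °C, then precipitation was detected as increased absorbance at 650 nm. Values give the concentration (μM) at which the compound remains in solution.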

SMILES	Ki (cyclophilin A (Cyp A)) [nM]	Ki (cyclophilin D (Cyp D)) [nM]	IC50 [1] [nM]	solubility at 18 h ([2]; pH 7.8) [µM]	Ki (cyclophilin A (Cyp A); protease-free PPIase assay, class symbols, read-out: CypA Ki) [nM]	Ki (cyclophilin D (Cyp D); protease-free PPIase assay, class symbols, read-out: CypD Ki) [nM]	solubility at 18 h ([2]; 35 mM HEPES buffer, 35 mM HEPES pH 7.8, 1% DMSO, 25° C., 18 h, concentration at which compound remains in solution, read-out: Solubility) [µM]
CC(C)C[C@@H]1C(=O)N[C@H](CC(C)C)C(=O)N(C)[C@H](C(C)C)C(=O)N(C)[C@H]([C@H](O)[C@H](C)C/C=C/c2ncccn2)C(=O)N[C@H]([C@@H](C)O)C(=O)N(C)CC(=O)N(C)[C@@H](CC(C)C)C(=O)N[C@H](CC(C)C)C(=O)N(C)[C@H](CC(C)C)C(=O)N[C@H](C)C(=O)O[C@@H](C(C)C)C(=O)N1C [Example 15, cyclo-{(3R,4R,5S)-4-(hydroxy)-3-methyl-5-(methylamino)-1-(pyrimidin-2-yl)-hept-1-enoic acid-Thr-Sar-MeLeu-Leu-MeLeu-Ala-D-Hiv-MeLeu-Leu-MeVal}] (cyclo([Hiv][dNMeL][dL][dNMeV][X4][d(aThr)][Sar][NMeL][dL][dNMeL][dA]))	1 to 25	1 to 25	> 1000	10 to 25 (≈ 13.1 to 32.8 µg/mL)	–	–	–
C/C=C/C[C@@H](C)[C@@H](O)[C@@H]1C(=O)N[C@H]([C@@H](C)O)C(=O)N(C)CC(=O)N(C)[C@@H](CC(C)C)C(=O)N[C@H](CC(C)C)C(=O)N(C)[C@H](CC(C)C)C(=O)N[C@H](C)C(=O)O[C@@H](C(C)C)C(=O)N(C)[C@H](CC(C)C)C(=O)N[C@H](CC(C)C)C(=O)N(C)[C@H](C(C)C)C(=O)N1C [Example 1, Cyclo-(MeBmt-Thr-Sar-MeLeu-Leu-MeLeu-Ala-D-Hiv-MeLeu-Leu-MeVal), reference compound]	1.7	3.2	70	10 to 25 (≈ 12.5 to 31.2 µg/mL)	–	–	–
CC(C)C[C@@H]1C(=O)N[C@H](CC(C)C)C(=O)N(C)[C@H](C(C)C)C(=O)N(C)[C@H]([C@H](O)[C@H](C)CCCc2cccc(N3CCOCC3)n2)C(=O)N[C@H]([C@@H](C)O)C(=O)N(C)CC(=O)N(C)[C@@H](CC(C)C)C(=O)N[C@H](CC(C)C)C(=O)N(C)[C@H](CC(C)C)C(=O)N[C@H](C)C(=O)O[C@@H](C(C)C)C(=O)N1C [Example 20, cyclo-[(3R,4R,5S)-4-(hydroxy)-3-methyl-5-(methylamino)-1-(6-morpholin-4-yl-pyridin-2-yl)-heptanoic acid-Thr-Sar-MeLeu-Leu-MeLeu-Ala-D-Hiv-MeLeu-Leu-MeVal]] (cyclo([Hiv][dNMeL][dL][dNMeV][X2][d(aThr)][Sar][NMeL][dL][dNMeL][dA]))	–	–	> 5000	–	1 to 25	1 to 25	10 to 25 (≈ 14 to 34.9 µg/mL)
Cc1cccc(CCC[C@@H](C)[C@@H](O)[C@@H]2C(=O)N[C@H]([C@@H](C)O)C(=O)N(C)CC(=O)N(C)[C@@H](CC(C)C)C(=O)N[C@H](CC(C)C)C(=O)N(C)[C@H](CC(C)C)C(=O)N[C@H](C)C(=O)O[C@@H](C(C)C)C(=O)N(C)[C@H](CC(C)C)C(=O)N[C@H](CC(C)C)C(=O)N(C)[C@H](C(C)C)C(=O)N2C)n1 [Example 17] (cyclo([Hiv][dNMeL][dL][dNMeV][X1][d(aThr)][Sar][NMeL][dL][dNMeL][dA]))	1 to 25	1 to 25	> 1000	10 to 25 (≈ 13.3 to 33.2 µg/mL)	–	–	–

Second part, the compound after the results:

Ki (cyclophilin A (Cyp A)) [nM]	Ki (cyclophilin D (Cyp D)) [nM]	IC50 [1] [nM]	solubility at 18 h ([2]; pH 7.8) [µM]	Ki (cyclophilin A (Cyp A); protease-free PPIase assay, class symbols, read-out: CypA Ki) [nM]	Ki (cyclophilin D (Cyp D); protease-free PPIase assay, class symbols, read-out: CypD Ki) [nM]	solubility at 18 h ([2]; 35 mM HEPES buffer, 35 mM HEPES pH 7.8, 1% DMSO, 25° C., 18 h, concentration at which compound remains in solution, read-out: Solubility) [µM]	SMILES
1 to 25	1 to 25	> 10000	75 to 100 (≈ 102 to 135 µg/mL)	–	–	–	CC(C)C[C@@H]1C(=O)N[C@H](CC(C)C)C(=O)N(C)[C@H](C(C)C)C(=O)N(C)[C@H]([C@H](O)[C@H](C)CCN2CCS(=O)(=O)CC2)C(=O)N[C@H]([C@@H](C)O)C(=O)N(C)CC(=O)N(C)[C@@H](CC(C)C)C(=O)N[C@H](CC(C)C)C(=O)N(C)[C@H](CC(C)C)C(=O)N[C@H](C)C(=O)O[C@@H](C(C)C)C(=O)N1C [Example 23, cyclo-[(3R,4R,5S)-4-(hydroxy)-3-methyl-5-(methylamino)-1-N-(thiomorpholine 1,1-dioxide)-hexanoic acid-Thr-Sar-MeLeu-Leu-MeLeu-Ala-D-Hiv-MeLeu-Leu-MeVal]] (cyclo([Hiv][dNMeL][dL][dNMeV][X5][d(aThr)][Sar][NMeL][dL][dNMeL][dA]))
1 to 25	1 to 25	> 10000	25 to 50 (≈ 33.3 to 66.6 µg/mL)	–	–	–	CC(C)C[C@@H]1C(=O)N[C@H](CC(C)C)C(=O)N(C)[C@H](C(C)C)C(=O)N(C)[C@H]([C@H](O)[C@H](C)CCN2CC3CCC(C2)O3)C(=O)N[C@H]([C@@H](C)O)C(=O)N(C)CC(=O)N(C)[C@@H](CC(C)C)C(=O)N[C@H](CC(C)C)C(=O)N(C)[C@H](CC(C)C)C(=O)N[C@H](C)C(=O)O[C@@H](C(C)C)C(=O)N1C [Example 22, cyclo-[(3R,4R,5S)-4-(hydroxy)-3-methyl-5-(methylamino)-1-N-(8-oxa-3-aza-bicyclo[3.2.1]octane)-hexanoic acid-Thr-Sar-MeLeu-Leu-MeLeu-Ala-D-Hiv-MeLeu-Leu-MeVal]] (cyclo([Hiv][dNMeL][dL][dNMeV][X3][d(aThr)][Sar][NMeL][dL][dNMeL][dA]))
